Laboratory results from paper PMC4515243, “Phase 1 pharmacokinetic study of the oral pan-AKT inhibitor MK-2206 in Japanese patients with advanced solid tumors” (Cancer Chemotherapy and Pharmacology, 2015).
Like-named read-outs stand apart in the source and are kept apart here.

Experiments:
AKT1 = system: AKT1; parameters: method as in ref 3 = [3]; 3. Yan L (2009) MK-2206: a potent oral allosteric AKT inhibitor [abstract #DDT01-1]. In: Proceedings of the 100th annual meeting of the American association for cancer research, Denver, CO, 18–22 Apr; settings: purified recombinant AKT1, in vitro; cited from earlier work
[1] = plasma pharmacokinetics in Japanese patients (HPLC-MS/MS); type: in vivo, human; settings: for AUC(0-t) / concentration at 48 h / Cmax / Tmax / half-life: human, plasma, oral; for half-life: read-out: Apparent terminal t½ (converted)
Description: Blood samples for the QOD dosing schedule were collected for PK analyses just before and 2, 4, 6, 10, 24, and 48 h after MK-2206 dosing on days 1 and 27 of Cycle 1. After the final dose of MK-2206 during Cycle 1, blood samples were drawn 96, 144, and 192 h postdose during the 1-week rest period. Samples were also drawn directly before MK-2206 treatment on days 7, 15, and 21. Blood samples for the QW dosing schedule were collected for PK analyses just before and 2, 4, 6, 10, 24, 48, and 96 h after MK-2206 dosing on days 1 and 22 of Cycle 1. After the final dose of MK-2206 in Cycle 1, blood samples were drawn 168 and 240 h postdose during the 1-week rest period. Samples were also drawn directly before MK-2206 treatment on days 8 and 15. The blood samples were centrifuged, and the plasma was separated and stored at −20 °C. The plasma concentrations were analyzed using high-performance liquid chromatography with tandem mass spectroscopy (HPLC–MS/MS) at Merck Research Labs, West Point, PA.
PK differences were observed after exposure to MK-2206 in Japanese patients, compared with non-Japanese patients. Consequently, the PK data were analyzed using t tests and nonparametric Wilcoxon–Mann–Whitney tests because of potential differences in variance. […] No differences in Tmax were observed.

NC1(c2ccc(-c3nc4ccn5c(=O)[nH]nc5c4cc3-c3ccccc3)cc2)CCC1 [MK-2206]
Tmax First dose ([1]; 45 mg QOD (n = 3), Day 1, median (min–max)): 4.0 (4.0–6.0) h
Apparent terminal t½ ([1]; 45 mg QOD (n = 3), harmonic mean ± pseudo SD): 79.6 ± 8.5 h
GMR C48-h ([1]; 45 mg QOD, geometric mean ratio CDay27/CDay1): 5.02
Tmax Last dose ([1]; 60 mg QOD (n = 9), Day 27, median (min–max)): 6.0 (2.0–10.0) h
GMR C48-h ([1]; 60 mg QOD, geometric mean ratio CDay27/CDay1): 3.68
GMR C48-h ([1]; 135 mg QW, geometric mean ratio CDay22/CDay1): 1.25
GMR C48-h ([1]; 200 mg QW, geometric mean ratio CDay22/CDay1): 1.78
mean exposure values (Cmax and AUC), Japanese versus non-Japanese patients ([1]; 45- and 60-mg QOD and 200-mg QW cohorts, higher): 1.4–1.9 fold
mean exposure values (Cmax and AUC), Japanese versus non-Japanese patients ([1]; 135-mg QW cohort, lower): 0.7–1.3
AUC, Cmax and Ctrough versus non-Japanese patients ([1]; 200-mg QW cohort, P < 0.05): significantly higher
AUC(0-t) ([1]; 45 mg, 45 mg QOD (n = 3), Day 1, AUC0–48h, geometric mean (coefficient of variation), read-out: AUCt First dose): 1.85 µM·h
concentration at 48 h ([1]; 45 mg, 45 mg QOD (n = 3), Day 1, geometric mean (coefficient of variation), read-out: C48-h First dose): 28.8 nM
Cmax ([1]; 45 mg, 45 mg QOD (n = 3), Day 1, geometric mean (coefficient of variation), read-out: Cmax First dose): 60.5 nM
AUC(0-t) ([1]; 45 mg, 45 mg QOD (n = 3), Day 27, AUC0–48h, geometric mean (coefficient of variation), read-out: AUCt Last dose): 8.49 µM·h
concentration at 48 h ([1]; 45 mg, 45 mg QOD (n = 3), Day 27, geometric mean (coefficient of variation), read-out: C48-h Last dose): 144 nM
Cmax ([1]; 45 mg, 45 mg QOD (n = 3), Day 27, geometric mean (coefficient of variation), read-out: Cmax Last dose): 214 nM
AUC(0-t) ([1]; 60 mg, 60 mg QOD (n = 9), Day 1, AUC0–48h, geometric mean (coefficient of variation), read-out: AUCt First dose): 2.72 µM·h
concentration at 48 h ([1]; 60 mg, 60 mg QOD (n = 9), Day 1, geometric mean (coefficient of variation), read-out: C48-h First dose): 40.6 nM
Cmax ([1]; 60 mg, 60 mg QOD (n = 9), Day 1, geometric mean (coefficient of variation), read-out: Cmax First dose): 95.9 nM
AUC(0-t) ([1]; 60 mg, 60 mg QOD (n = 9), Day 27, AUC0–48h, geometric mean (coefficient of variation), read-out: AUCt Last dose): 9.69 µM·h
concentration at 48 h ([1]; 60 mg, 60 mg QOD (n = 9), Day 27, geometric mean (coefficient of variation), read-out: C48-h Last dose): 152 nM
Cmax ([1]; 60 mg, 60 mg QOD (n = 9), Day 27, geometric mean (coefficient of variation), read-out: Cmax Last dose): 277 nM
Tmax ([1]; 60 mg, QOD dosing (45 or 60 mg), Japanese patients, read-out: median Tmax): 4 to 6 h
AUC(0-t) ([1]; 135 mg, 135 mg QW (n = 3), Day 1, AUC0–168h, geometric mean (coefficient of variation), read-out: AUCt First dose): 9.68 µM·h
concentration at 48 h ([1]; 135 mg, 135 mg QW (n = 3), Day 1, geometric mean (coefficient of variation), read-out: C48-h First dose): 83.2 nM
Cmax ([1]; 135 mg, 135 mg QW (n = 3), Day 1, geometric mean (coefficient of variation), read-out: Cmax First dose): 234 nM
AUC(0-t) ([1]; 135 mg, 135 mg QW (n = 3), Day 22, AUC0–168h, geometric mean (coefficient of variation), read-out: AUCt Last dose): 12.8 µM·h
concentration at 48 h ([1]; 135 mg, 135 mg QW (n = 3), Day 22, geometric mean (coefficient of variation), read-out: C48-h Last dose): 104 nM
Cmax ([1]; 135 mg, 135 mg QW (n = 3), Day 22, geometric mean (coefficient of variation), read-out: Cmax Last dose): 244 nM
AUC(0-t) ([1]; 135 mg, 135 mg QW, Day 22, read-out: AUC0–48h): 12.8 µM·h
AUC(0-t) ([1]; 200 mg, 200 mg QW (n = 9), Day 1, AUC0–168h, geometric mean (coefficient of variation), read-out: AUCt First dose): 24.3 µM·h
concentration at 48 h ([1]; 200 mg, 200 mg QW (n = 9), Day 1, geometric mean (coefficient of variation), read-out: C48-h First dose): 186 nM
Cmax ([1]; 200 mg, 200 mg QW (n = 9), Day 1, geometric mean (coefficient of variation), read-out: Cmax First dose): 439 nM
AUC(0-t) ([1]; 200 mg, 200 mg QW (n = 9), Day 22, AUC0–168h, geometric mean (coefficient of variation), read-out: AUCt Last dose): 37.6 µM·h
concentration at 48 h ([1]; 200 mg, 200 mg QW (n = 9), Day 22, geometric mean (coefficient of variation), read-out: C48-h Last dose): 302 nM
Cmax ([1]; 200 mg, 200 mg QW (n = 9), Day 22, geometric mean (coefficient of variation), read-out: Cmax Last dose): 571 nM
Tmax ([1]; 200 mg, 200 mg QW (n = 9), Day 22, median (min–max), read-out: Tmax Last dose): 5 h
AUC(0-t) ([1]; 200 mg, 200 mg QW, Day 22, read-out: AUC0–48h): 37.6 µM·h
Tmax ([1]; 200 mg, QW dosing (135 and 200 mg), Japanese patients, read-out: median Tmax): 4 to 6 h
half-life ([1]; 60 mg QOD (n = 9), harmonic mean ± pseudo SD): 71.8 ± 8.9 h
half-life ([1]; 135 mg QW (n = 3), harmonic mean ± pseudo SD): 69.3 ± 8.9 h
half-life ([1]; 200 mg QW (n = 9), harmonic mean ± pseudo SD): 75.6 ± 9.7 h
